Test results as given in ChEMBL document CHEMBL5233248, “Resveratrol - A comprehensive review of recent advances in anticancer drug design and development” (Eur J Med Chem, 2020).
Blank lines part the entries; values can stand above or below the compound they belong to. Residues, ends and D or L forms follow the SMILES beside them. *: point of attachment. X1 = Oc1cc(O)cc(/C=C/c2ccc(O*)cc2)c1

Key:
L1210 = test: Anticancer activity against mouse L1210 cells assessed as cell growth inhibition incubated for 48 hrs by MTT assay; assay type: functional, cell-based; settings: L1210, 48 h
[1] = Anticancer activity against human Molt 4/C8 cells assessed as cell growth inhibition incubated for 48 hrs by MTT assay; assay type: functional, cell-based; settings: Molt4/C8, 48 h
CCRF-CEM [2] = test: Anticancer activity against human CEM cells assessed as cell growth inhibition incubated for 48 hrs by Tryphan blue assay; assay type: functional, cell-based
[3] = Potency index, ratio of test compound IC50 to Melphalan IC50 for antiproliferative activity against […] L1210 cells; assay type: functional
A549 = test: Anticancer activity against human A549 cells assessed as cell growth inhibition incubated for 48 hrs by Tryphan blue assay; assay type: functional, cell-based; settings: A549, 48 h
CCRF-CEM [4] = test: Anticancer activity against human CEM cells assessed as cell growth inhibition incubated for 48 hrs by MTT assay; assay type: functional, cell-based
HCT-116 = test: Anticancer activity against human HCT-116 assessed as cell growth inhibition incubated for 72 hrs by MTT assay; assay type: functional, cell-based; settings: HCT-116, 72 h
MCF7 [5] = test: Anticancer activity against human MCF7 assessed as cell growth inhibition incubated for 72 hrs by MTT assay; assay type: functional, cell-based; settings: MCF7, 72 h
NCI-H460 = test: Anticancer activity against human NCI-H460 assessed as cell growth inhibition incubated for 72 hrs by MTT assay; assay type: functional, cell-based; settings: NCI-H460, 72 h
[6] = Selectivity ratio of IC50 for human MCF7 cells to IC50 for human MDA-MB-231 cells; assay type: toxicity
[7] = Selectivity ratio of IC50 for human MDA-MB-231 cells to IC50 for human MCF7 cells
MCF7 [8] = test: Anticancer activity against human MCF7 cells assessed as cell growth inhibition incubated for 24 hrs by MTT assay; assay type: functional, cell-based; settings: MCF7, 24 h
MDA-MB-231 = test: Anticancer activity against human MDA-MB-231 cells assessed as cell growth inhibition incubated for 24 hrs by MTT assay; assay type: functional, cell-based; settings: MDA-MB-231, 24 h
[9] = Cytotoxicity against human MCF-10A cells assessed as cell growth inhibition incubated for 24 hrs by MTT assay; assay type: toxicity, cell-based

IC50 (L1210): 1.2 µM
IC50 (CCRF-CEM [2]): 2.6 µM
IC50 (A549): 2.6 µM
IC50 (CCRF-CEM [4]): 3.1 µM
SMILES: COc1cc(/C=C/c2ccc(C)cc2)cc(OC)c1OC
IC50 [1]: 1.4 µM
Ratio IC50 [3]: 2

IC50 (HCT-116): 78 µM
IC50 (MCF7 [5]): 58 µM
IC50 (NCI-H460): 41 µM
SMILES: CC(C)C[C@H](NC(=O)[C@H](CCCCN)NC(=O)[C@H](CO)NC(=O)[C@@H](N)CC(C)C)C(=O)Oc1ccc(/C=C/c2cc(O)cc(O)c2)cc1 (H-LSKL-X1)

IC50 (MCF7 [8]): 26.3 µM
IC50 (MDA-MB-231): 48.2 µM
SMILES: Oc1ccc(-c2ccc3cc(O)ccc3c2)c(O)c1
Ratio IC50 [6]: 3.3
Ratio IC50 [7]: 1.9
IC50 at 24 h [9]: > 100 µM
